For orientation: IC50 means the concentration at which inhibition is half-maximal. One may read the viability, T/C as the ratio of treated to control.

Some results are limits rather than exact numbers.

The assay relates to NCI-H322M multicellular tumor spheroids, viability (% test/control). Kind of assay: Anticancer human tumor NCI-H322M cell line growth inhibition.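 On viability, T/C: spheroids exposed to compound for seven days before readout; 100% = DMSO vehicle control wells.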 To be noted: for viability, T/C: stronger effect = lower value. Put shortly:
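Complex spheroids of malignant cells with endothelial cells and mesenchymal stem cells; agents alone or combined, from near clinical Cmax (or 10 microM if unknown) down in half-log steps, 0.25% DMSO final.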

For the compound `CC(C)n1c(=O)n(C)c2cnc3cc(F)c(-c4ccc(OCCCN5CCCCC5)nc4)cc3c21` + Cn1nnc2c(C(N)=O)ncn2c1=O, the IC50 is, setting by setting: (curve of first compound, second compound 1 µM) > 10 µM; (curve of first compound, second compound 3.16 µM) > 10 µM; (curve of first compound, second compound 10 µM) > 10 µM; (curve of first compound, second compound 31.6 µM) > 10 µM; (curve of first compound, second compound 100 µM) > 10 µM. Also, the viability, T/C runs as follows: (second compound 1 µM, first compound 0.0316 µM) 86.7%; (second compound 1 µM, first compound 0.1 µM) 82.1%; (second compound 1 µM, first compound 0.316 µM) 85%; (second compound 1 µM, first compound 1 µM) 95.4%; (second compound 1 µM, first compound 3.16 µM) 92%; (second compound 1 µM, first compound 10 µM) 77.9%. The viability, T/C by setting is: (second compound 3.16 µM, first compound 0.0316 µM) 83.8%; (second compound 3.16 µM, first compound 0.1 µM) 70.6%; (second compound 3.16 µM, first compound 0.316 µM) 83.1%; (second compound 3.16 µM, first compound 1 µM) 78.7%; (second compound 3.16 µM, first compound 3.16 µM) 81.3%; (second compound 3.16 µM, first compound 10 µM) 82.5%. Further, the viability, T/C is, setting by setting: (second compound 10 µM, first compound 0.0316 µM) 76.8%; (second compound 10 µM, first compound 0.1 µM) 84.7%; (second compound 10 µM, first compound 0.316 µM) 89.4%; (second compound 10 µM, first compound 1 µM) 98.5%; (second compound 10 µM, first compound 3.16 µM) 96.4%; (second compound 10 µM, first compound 10 µM) 79.1%. For the same compound, the viability, T/C was 94.9% (second compound 31.6 µM, first compound 0.0316 µM); 74.8% (second compound 31.6 µM, first compound 0.1 µM); 81.9% (second compound 31.6 µM, first compound 0.316 µM); 85.2% (second compound 31.6 µM, first compound 1 µM); 98.2% (second compound 31.6 µM, first compound 3.16 µM); 84.7% (second compound 31.6 µM, first compound 10 µM). In addition, the viability, T/C (second compound 100 µM, first compound 0.0316 µM) is 85%; the viability, T/C (second compound 100 µM, first compound 0.1 µM) was 93.4%; the viability, T/C (second compound 100 µM, first compound 0.316 µM) was 82.1%; the viability, T/C (second compound 100 µM, first compound 1 µM) was 88.5%; the viability, T/C (second compound 100 µM, first compound 3.16 µM) is 83%; the viability, T/C (second compound 100 µM, first compound 10 µM) is 87%.
Regarding `Cn1nnc2c(C(N)=O)ncn2c1=O`, the IC50 (compound alone, run of 12/02/2019) was > 100 µM.

The record behind these values is PubChem BioAssay AID1845211 (Molecular Pharmacology Branch, DTP, NCI, 2023).
